Results reported in ChEMBL document CHEMBL1135764, “Synthesis and evaluation of Glypsi(PO(2)R-N)Pro-containing pseudopeptides as novel inhibitors of the human cyclophilin hCyp-18” (J Med Chem, 2002).
Active and inactive are the calls of the source. The calls are words filed in the database; no cut-off is given here.

Columns and labels:
[1] = test system: cyclophilin A hCyp-18 (Homo sapiens); experiment: Inhibitory activity against Human Cyclophilin hCyp-18 Peptidyl-prolyl isomerase by using the standard uncoupled PPIase (peptidyl-prolyl isomerases) assay at a concentration of 500 uM
[2] = test system: cyclophilin A hCyp-18 (Homo sapiens); experiment: Inhibitory activity against Human Cyclophilin hCyp-18 Peptidyl-prolyl isomerase by using the standard uncoupled PPIase (peptidyl-prolyl isomerases) assay at a concentration of 500 uM;NI-no inhibition
[3] = test system: cyclophilin A hCyp-18 (Homo sapiens); experiment: Inhibitory activity against Human Cyclophilin hCyp-18 Peptidyl-prolyl isomerase by using the standard trypsin-coupled PPIase (peptidyl-prolyl isomerases) assay at a concentration of 100 uM

| Inhibition [1] | NI [2] | Inhibition [3] | SMILES |
| --- | --- | --- | --- |
| 30% | inactive |  | CCOP(=O)(CNC(=O)[C@H](C)NC(C)=O)N1CCCC1C(=O)N[C@H](CNc1ccc([N+](=O)[O-])cc1)Cc1ccccc1 (stereo partly drawn) |
|  |  | 0% | COC(=O)Cc1ccc(NC(=O)[C@H](Cc2ccccc2)NC(=O)C2CCCN2P(=O)(O)CNC(=O)[C@H](C)NC(C)=O)cc1 (stereo partly drawn) |
